Results on two molecules are retold here after patent US5428031A, “Methods of treating cardiac arrhythmia” (priority 1993, dated 1995).

Usually IC50 stands for the midpoint of a concentration-inhibition curve.

The target of experiment [1] is T1, IKs (slowly activating delayed rectifier K+ current) (Cavia porcellus, UniProt O70344).
T1 construct: Guinea pig ventricular myocytes were isolated; endogenous in cells; host or cells: isolated guinea pig ventricular myocytes
Put plainly: cell-based. It counts as cell-based, guinea pig. How it is done:
Current amplitude is measured as the difference from the initial instantaneous current level following the capacitance discharge after changing the transmembrane voltage from -50 mV to +50 mV, to the current level at the end of the 1 second voltage step. Normally, an increase in the current amplitude occurs as a function of time and voltage during depolarization of the cardiac cell membrane and this increasing current has been defined as the delayed rectifier K^+ current (IK). […] IKs current occurs as a consequence of time- and voltage-dependent opening of ionic channels or pores in the cardiac cell membrane that allow the relatively selective flow of potassium ions (K^+) from the inside to the outside of the cell, that is, down the voltage and concentration gradient for K^+ ions that is inherent in cardiac cells. Thus, block of the IKs current ultimately reflects block of certain ion channels or pores in the cardiac cell membrane. However, the single pores or channels thought to underlie the IKs current have yet to be measured or identified at the single channel level.
Guinea pig ventricular myocytes were isolated using a modification of the procedure described by Mitra R and Morad M., "A Uniform Enzymatic Method for Dissociation of Myocytes from Hearts and Stomachs of Nertilorates", Am. J. Physiol. […] Excised hearts were perfused through the aorta (retrograde fashion) at a rate of 10 ml/min with oxygenated, warmed (37° C.) solutions described below. […] The head was then perfused with the same nominally Ca^2+ -free solution containing 150 units/ml Type II collagenase (Worthington) and 0.5 units/ml Type XIV protease (Sigma) for 8 minutes. This perfusate was followed by a Tyrode's solution containing 0.2 mM CaCl2 (without enzymes) for 5 minutes. The digested ventricles were cut into small pieces and gently shaken until cells were visibly dispersed. The cells were stored at room temperature until use, within 8 hours after isolation.
The suction microelectrode technique described by Giles, W. R. and Shibata, E. F., "Voltage clamp of bull-frog cardiac pacemaker cells: a quantitative, analysis of potassium currents". J. Physiol. […] Microelectrodes were made by using a two stage puller from square bore (1.0 mm o.d.) borosilicate capillary tubing. […] After establishing whole-cell recording mode, negative pressure was maintained on the pipette using a 1 ml gas-tight syringe attached via air tight tubing to the suction port of the microelectrode holder. This minimized dialysis of the cell with the pipette solution.
To record K^+ currents, the cells were bathed in a Ca^2+ -free Tyrode's :solution containing […] nisoldipine. […] A List EPC-7 clamp amplifier was used to voltage clamp the isolated cells. […] A variety of voltage pulse protocols were used to measure Ca^2+ current and three types of K^+ currents: inward rectifier (IK1), rapidly activating delayed rectifier (IKr) and the slowly activating delayed rectifier (IKs). Sanguinetti M. C. and Jurkiewicz, N. K., "Two components of cardiac delayed rectifier K^+ current: Differential sensitivity to block by Class III antiarrhythmic agents". […] Data was analyzed as % block from control membrane currents.
Nisoldipins was prepared as a 4 mM stock solution in polyethylne glycol 200. Compounds tested in this series were prepared as 10 mM stock solutions in polyethylene glycol 400 or dimethyl sulfoxide.

A further experiment deals with anesthetized dogs. Kind of experiment: frequency-dependent effects on cardiac (ventricular) refractory period in anesthetized dogs. The format is in vivo, dog. Conditions: 1.0 mg/kg i.v. How it is done:
Purpose-bred male or female mongrel dogs (9.8-10.8 kg) were anesthetized with alpha chloralose (80-100 mg/kg i.v.), and the animals were ventilated using a volume-cycled respirator. The right femoral artery and vein were isolated and cannulated for the measurement of systemic arterial pressure and for test agent administration, respectively. A right thoracotomy was performed in the 4th intercostal space, the pericardium incised, and the heart suspended in a pericardial cradle. One stainless steel bipolar plunge electrode was sutured to the ,anterior surface of the right ventricle for the determination of ventricular excitation threshold and refractory periods, while a second stainless steel bipolar plunge electrode was sutured to the right ventricular apex for ventricular pacing. A 21 gauge stainless steel hypodermic needle attached to a 1 ml syringe containing 40% formaldehyde was introduced into the right atrium via a stab wound and purse-string suture. The atrioventricular (AV) node was identified and then chemically ablated with formaldehyde using the method of Steiner and Kovalik (Steiner C. and Kovalik A. T. W., "A simple technique for production of chronic complete heart block in dogs", J. Appl. Physiol. 25: 631-632:, 1968). After the ablation of the AV node, heart rate was controlled and maintained at either 60 or 150 beats/min, as dictated by the experimental protocol, by ventricular apical pacing. Limb electrodes were attached for the continuous recording of Lead II electrocardiogram.
Ventricular excitation threshold (ET) and relative refractory periods (RRPs) were determined alternately at heart rates of 60 and 150 beats/min using an extrastimulus technique described previously (Wallace A. A. et. al., "Cardiac electrophysiologic and inotropic actions of new and potent methanesulfonanilide Class III antiarrhythmic agents in the anesthetized dog". J. Cardiovasc. Pharmacol. 18: 687-695, 1991). Ventricular excitation threshold was defined as the minimum current required to evoke a propagated response for a ventricular extrastimulus introduced at a coupling interval of 250-300 msec after a basic ventricular apical beat. The ventricular relative refractory period was defined as the longest coupling interval failing to elicit a propagated response for a ventricular extrastimulus introduced with a current intensity of 2× the ventricular excitation threshold. Multiple alternating baseline 60 and 150 beat/min RRPs were measured in each preparation, with two-to-three stable consecutive baseline RRP determinations required prior to administration of the test agent.
The compound of Example 26 was administered intravenously at a dosage of 1.0 mg/kg over a period of 5 minutes to a group of 5 anesthetized dogs. The compound of Example 26 was infused in a vehicle of 2% cremophor/2% ethanol/96% saline, at a test agent concentration of 0.5 mg/ml. Ventricular RRPs at 60 and 150 beats/min were redetermined immediately, 15 and 30 minutes following the intravenous administration of the compound of Example 26. The frequency-dependence of the activity of the compound of Example 26 was assessed by comparing absolute increases in ventricular RRPs from the final corresponding baseline value determined at slower (60 beat/min) vs faster (150 beat/min) heart rates.

For `Cc1cccc(NC(=O)N[C@@H]2N=C(c3ccccc3)c3ccccc3N(C)C2=O)c1` [Compound 4, (R)-N-(2,3-dihydro-1-methyl-2-oxo-5-phenyl-1H-1,4-benzodiazepin-3-yl)-N'-(3-methylphenyl)urea], inhibition in experiment [1] was half-maximal at 215 nM (IC50). The “block of IKs” value in experiment [1] (5 μM) is “Complete block”.
Regarding `CN1C(=O)[C@H](NC(=O)/C=C/c2ccc(Cl)cc2Cl)N=C(c2ccccc2)c2ccccc21` [Example 26, E-(+)-N-[(3R)-2,3-Dihydro-1-methyl-2-oxo-5-phenyl-1H-1,4-benzo-diazepin-3-yl]-3-(2,4-dichlorophenyl)-2-propenamide], in experiment [1] (selective: 50% block of IKs at 1 μM or less and at least 10 fold lower than for IKr and/or IK1), the “selective block of IKs” value was “selective blocker of IKs”. In addition, the “Increase in Ventricular Relative Refractory Period above baseline” value in the experiment with anesthetized dogs (60 beat/min, 15 Min) was determined as 19.2 ± 3.4 ms; in the experiment with anesthetized dogs (60 beat/min, 30 Min), 14.0 ± 2.3 ms; in the experiment on anesthetized dogs (60 beat/min, Immediate) it was 29.6 ± 4.4 ms; in the experiment with anesthetized dogs (150 beat/min, 15 Min), 15.6 ± 4.1 ms; in the experiment on anesthetized dogs (150 beat/min, 30 Min), 11.4 ± 4.4 ms; in the experiment on anesthetized dogs (150 beat/min, Immediate), 23.2 ± 7.3 ms. In the experiment with anesthetized dogs (60 and 150 beat/min), the “frequency dependence of increase in ventricular RRP” value is reported as “Equivalent increases in the ventricular RRPs”.
